Laboratory results: patent EP0369881A1, “Compounds derived from the 3-keto-delta 4,9-19-nor steroid structure, and their use as medicaments” (ROUSSEL-UCLAF, priority 1988, dated 1990)

Key:
[1] = molecular target: T1, Récepteur glucocorticoïde du thymus de rat (Rattus norvegicus, UniProt P06536); test: Relative binding affinity, competition with tritiated dexamethasone, rat thymus cytosol; conditions: reference hormone dexaméthasone
T1 construct: les thymus sont prélevés et homogénéisés à 0°C; from tissue; host or cells: thymus cytosol (105 000 g supernatant) of adrenalectomised male Sprague Dawley rats
T1 sequence (P06536 1-795): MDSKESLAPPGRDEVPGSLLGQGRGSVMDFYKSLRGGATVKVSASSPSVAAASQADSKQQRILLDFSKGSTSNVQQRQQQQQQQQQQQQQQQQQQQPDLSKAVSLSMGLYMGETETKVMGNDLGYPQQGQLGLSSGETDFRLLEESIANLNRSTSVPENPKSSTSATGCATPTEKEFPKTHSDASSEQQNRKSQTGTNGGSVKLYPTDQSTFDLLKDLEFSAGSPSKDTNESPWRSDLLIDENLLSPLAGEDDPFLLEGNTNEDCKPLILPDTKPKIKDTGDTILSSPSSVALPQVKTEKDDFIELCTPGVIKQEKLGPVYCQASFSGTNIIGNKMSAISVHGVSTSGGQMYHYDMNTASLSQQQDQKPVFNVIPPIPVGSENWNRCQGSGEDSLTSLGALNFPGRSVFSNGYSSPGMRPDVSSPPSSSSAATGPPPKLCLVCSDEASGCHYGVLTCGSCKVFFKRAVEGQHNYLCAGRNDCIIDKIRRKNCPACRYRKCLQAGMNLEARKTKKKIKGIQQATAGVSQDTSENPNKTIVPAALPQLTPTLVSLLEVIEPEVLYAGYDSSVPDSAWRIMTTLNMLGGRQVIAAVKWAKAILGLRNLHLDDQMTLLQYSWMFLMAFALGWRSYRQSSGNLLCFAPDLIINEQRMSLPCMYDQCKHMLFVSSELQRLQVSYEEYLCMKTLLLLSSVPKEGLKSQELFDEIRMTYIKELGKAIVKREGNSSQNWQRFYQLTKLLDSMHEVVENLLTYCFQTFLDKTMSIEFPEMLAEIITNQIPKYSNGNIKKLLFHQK
Method: Récepteur glucocorticoïde du thymus de rat :
Des rats mâles Sprague Dawley EOPS de 160 à 200 g sont surrénalectomisés. 4 à 8 jours après cette ablation, les animaux sont sacrifiés, et les thymus sont prélevés et homogénéisés à 0°C dans un tampon Tris 10mM, saccharose 0,25M, dithiothreitol 2mM, HCl pH 7,4, à l'aide d'un Potter polyté-trafluoroéthylène-verre (1 g de tissu pour 10 ml de TS). L'homogénat est ensuite ultracentrifugé (105 000 g x 90 mn) à 0°C. Des aliquotes du surnageant ainsi obtenu, sont incubées à 0°C pendant un temps (t) avec une concentration constante (T) de dexaméthasone tritiée en présence de concentrations croissantes (O - 2 500.10⁻⁹M) soit de dexaméthasone froide, soit du produit froid à tester. La concentration de la dexaméthasone tritiée liée (B) est ensuite mesurée dans chaque incubat par la technique d'adsorption au charbon dextran.
(§1) Calcul de l'affinité relative de liaison:
(§2) Le calcul de l'affinité relative de liaison (ARL) est identique pour tous les récepteurs.
(§3) On trace les 2 courbes suivantes : le pourcentage de l'hormone tritiée liée (B)/(T) [formula] en fonction du logarithme de la concentration de l'hormone de référence froide et (B)/(T) [formula] en en fonction du logarithme de la concentration du produit froid testé.
(§4) On détermine la droite d'équation I₅₀ = ( (B)/(T) [formula] max + (B)/(T) [formula] min)/2. (B)/(T) [formula] max = Pourcentage de l'hormone tritiée liée pour une incubation de cette hormone tritiée à la concentration (T). (B)/(T) [formula] min = Pourcentage de l'hormone tritiée liée pour une incubation de cette hormone tritiée à la concentration (T) en présence d'un grand excès d'hormone froide (2500.10⁻⁹M).
(§5) Les intersections de la droite I₅₀ et des courbes permettent d'évaluer les concentrations de l'hormone de référence froide (CH) et du produit froid testé (CX) qui inhibent de 50% la liaison de l'hormone tritiée sur le récepteur.
(§6) L'affinité relative de liaison (ARL) du produit testé est déterminée par l'équation [formula]

[2] = molecular target: T2, Récepteur progestogène de l'utérus de lapine (Oryctolagus cuniculus, UniProt P06186); test: Relative binding affinity, competition with tritiated Product R, rabbit uterus cytosol; conditions: reference hormone progestérone
T2 construct: les utérus sont prélevés, pesés et homogénéisés à 0°C; from tissue; host or cells: uterus cytosol (105 000 g supernatant) of estradiol-primed immature female rabbits
T2 sequence (P06186 1-930): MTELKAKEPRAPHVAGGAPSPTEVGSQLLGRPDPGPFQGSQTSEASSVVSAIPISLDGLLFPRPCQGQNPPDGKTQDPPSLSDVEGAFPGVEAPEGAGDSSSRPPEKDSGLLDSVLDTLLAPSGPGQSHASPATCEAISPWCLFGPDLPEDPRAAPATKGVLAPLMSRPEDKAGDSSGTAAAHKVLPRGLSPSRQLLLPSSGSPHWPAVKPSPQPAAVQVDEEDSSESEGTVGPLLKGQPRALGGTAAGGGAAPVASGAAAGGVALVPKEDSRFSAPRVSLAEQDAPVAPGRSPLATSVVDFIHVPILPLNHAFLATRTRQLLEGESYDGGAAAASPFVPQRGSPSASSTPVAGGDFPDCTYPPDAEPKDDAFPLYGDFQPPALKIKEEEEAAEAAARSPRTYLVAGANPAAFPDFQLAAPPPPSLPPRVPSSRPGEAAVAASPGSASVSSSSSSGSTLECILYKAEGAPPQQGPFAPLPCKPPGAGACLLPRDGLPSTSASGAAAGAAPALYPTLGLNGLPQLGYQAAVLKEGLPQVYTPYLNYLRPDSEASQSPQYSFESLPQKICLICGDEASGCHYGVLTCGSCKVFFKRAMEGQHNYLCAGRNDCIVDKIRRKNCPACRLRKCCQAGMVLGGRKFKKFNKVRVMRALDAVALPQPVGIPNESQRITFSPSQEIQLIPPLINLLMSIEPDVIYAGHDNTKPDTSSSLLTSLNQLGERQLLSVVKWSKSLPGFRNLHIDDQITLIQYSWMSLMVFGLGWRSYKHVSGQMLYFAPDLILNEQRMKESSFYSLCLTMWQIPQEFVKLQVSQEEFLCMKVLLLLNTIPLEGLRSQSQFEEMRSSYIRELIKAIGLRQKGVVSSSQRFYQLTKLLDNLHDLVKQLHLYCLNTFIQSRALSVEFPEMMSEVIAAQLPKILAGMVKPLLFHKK
Method: Récepteur progestogène de l'utérus de lapine :
Des lapines impubères d'environ 1 kg reçoivent une application cutanée de 25 microgrammes d'estradiol. 5 jours après ce traitement, les animaux sont sacrifiés, les utérus sont prélevés, pesés et homogénéisés à 0°C, à l'aide d'un Potter teflon-verre dans une solution tamponnée TS (Tris 10mM, saccharose 0,25 M, HCl pH 7,4) (1 g de tissu pour 50 ml de TS). L'homogénat est ensuite ultracentrifugé (105 000 g x 90 mn) à 0°C. Des aliquotes du surnageant ainsi obtenu, sont incubées à 0°C pendant un temps t, avec une concentration constante (T) de Produit R tritié (17,21-diméthyl 19-nor 4,9-pregnadiène-3,20-dione) en présence de concentrations croissantes (0 - 2 500. 10⁻⁹M) soit de R froid, soit de progestérone froide, soit du produit froid à tester. La concentration de R tritié lié (B) est ensuite mesurée dans chaque incubat par la technique d'adsorption au charbon dextran.
as §1, §2, §3, §4, §5, §6

| Compound | affinité relative de liaison (ARL) Glucocorticoïde ([1]; incubation 1H at 0°C) | affinité relative de liaison (ARL) Glucocorticoïde ([1]; incubation 24H at 0°C) | affinité relative de liaison (ARL) Progestogène ([2]; incubation 2H at 0°C) | affinité relative de liaison (ARL) Progestogène ([2]; incubation 24H at 0°C) |
| --- | --- | --- | --- | --- |
| CSc1ccc([C@H]2C[C@@]3(C)[C@@H](CC[C@@]3(O)C#CCCl)[C@@H]3CCC4=CC(=O)CCC4=C32)cc1 [Exemple 4, 17alpha-(3-chloro 1-propynyl) 17béta-hydroxy 11béta-[4-(méthylthio)phényl] estra-4,9-dièn-3-one] | 156 | 139 | 70 | 351 |
| CSc1ccc([C@H]2C[C@@]3(C)[C@@H](CC[C@@]3(O)C#CCO)[C@@H]3CCC4=CC(=O)CCC4=C32)cc1 [Exemple 1, 17béta-hydroxy 17alpha-(3-hydroxy 1-propynyl) 11béta-[4-(méthylthio)phényl] estra-4,9-dien-3-one] | 133 | 99 | 72 | 86 |
| CSc1ccc([C@H]2C[C@@]3(C)[C@@H](CC[C@@]3(O)C#CCF)[C@@H]3CCC4=CC(=O)CCC4=C32)cc1 [Exemple 3, 17alpha-(3-fluoro 1-propynyl) 17béta-hydroxy 11béta-[4-(méthylthio)phényl] estra-4,9-dièn-3-one] | 142 | 169 | 55 | 225 |
